SMILES strings stand for the structures.

Sequence of Factor D (P00746 26-253): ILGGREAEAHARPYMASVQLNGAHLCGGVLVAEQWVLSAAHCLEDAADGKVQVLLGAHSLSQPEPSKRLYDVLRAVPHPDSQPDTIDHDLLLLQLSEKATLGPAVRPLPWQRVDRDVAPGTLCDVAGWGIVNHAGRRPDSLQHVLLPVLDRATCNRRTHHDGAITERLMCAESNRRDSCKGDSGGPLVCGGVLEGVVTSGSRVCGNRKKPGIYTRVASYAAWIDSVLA

This assay has as its target Factor D (Homo sapiens (Human), UniProt P00746). Kind of assay: Factor D esterolytic assay (Z-Lys-SBzl substrate, DTNB, 405 nm). Format: biochemical. Particulars: Z-Lys-SBzl 1.29 mM, pH 7.5, 10% DMSO, tested a minimum of three times, read-out: Measured Ki (IC50) Value for Compounds: IC50. The method in brief: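 Human Factor D ([…]) with 1.29 mM Z-Lys-SBzl in 100 mM HEPES, 500 mM NaCl, pH 7.5, 10% DMSO; substrate added immediately or after room-temperature preincubation. Released thiol reacted with DTNB, rate followed at 405 nm for 600 sec, 690 nm background subtracted. IC50 from percent inhibition versus uninhibited rate, n≥3.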
Consider `NCc1cccc(-c2cc(COc3ccccc3CC(=O)O)cc3cc(CN)oc23)c1` [Compound 406e, 2-(2-((2-(aminomethyl)-7-(3-(aminomethyl)phenyl)benzofuran-5-yl)methoxy)phenyl)acetic acid], for which the 50% inhibitory concentration (IC50) was below 1000 nM. Regarding `NCc1cccc(-c2cc(NC(=O)N3CCCC3CC(=O)O)cc3ccoc23)c1` (stereo not shown) [Compound 407d, 2-(1-((7-(3-(aminomethyl)phenyl)benzofuran-5-yl)carbamoyl)pyrrolidin-2-yl)acetic acid], the IC50 was above 10000 nM. Take `NCc1cccc(-c2cc(NC(=O)[C@H]3CCCN3CC(=O)O)cc3ccoc23)c1` [Compound 408e, (R)-2-(2-((7-(3-(aminomethyl)phenyl)benzofuran-5-yl)carbamoyl)pyrrolidin-1-yl)acetic acid]: the half-inhibitory concentration (IC50) is above 10000 nM. In the case of `Cc1cc2c(-c3cccc(CN)c3F)cc(COc3ccccc3CC(=O)O)cc2o1` [Compound 409f, 2-(2-((4-(3-(aminomethyl)-2-fluorophenyl)-2-methylbenzofuran-6-yl)methoxy)phenyl)acetic acid], the IC50 was below 1000 nM.

For `NCc1cccc(-c2cc(COc3cc(C(N)=O)ccc3CC(=O)O)cc3ccoc23)c1F` [Compound 411e, 2-(2-((7-(3-(aminomethyl)-2-fluorophenyl)benzofuran-5-yl)methoxy)-4-carbamoylphenyl)acetic acid], the IC50 is below 1000 nM. Turning to `Cc1c(COc2ccccc2CC(=O)O)cc2ccoc2c1-c1cccc(CN)c1` [Compound 413m, 2-(2-((7-(3-(aminomethyl)phenyl)-6-methylbenzofuran-5-yl)methoxy)phenyl)acetic acid], the IC50 was below 1000 nM. Regarding `Cc1c(COc2ccccc2CC(=O)O)cc(-c2cccc(CN)c2)c2occc12` [Compound 413n, 2-(2-((7-(3-(aminomethyl)phenyl)-4-methylbenzofuran-5-yl)methoxy)phenyl)acetic acid], the 50% inhibitory concentration (IC50) was below 1000 nM. Regarding `N#Cc1ccc(CC(=O)O)c(OCc2cc(-c3cccc(CN)c3F)c3occc3c2)c1` [Compound 414b, 2-(2-((7-(3-(aminomethyl)-2-fluorophenyl)benzofuran-5-yl)methoxy)-4-cyanophenyl)acetic acid], the IC50 is below 1000 nM. As for `COCc1cc2cc(COc3cc(C)ccc3CC(=O)O)cc(-c3cccc(CN)c3)c2o1` [Compound 415e, 2-(2-((7-(3-(aminomethyl)phenyl)-2-(methoxymethyl)benzofuran-5-yl)methoxy)-4-methylphenyl)acetic acid], the IC50 is below 1000 nM.

For `COCc1cc2cc(COc3cc(C#N)ccc3CC(=O)O)cc(-c3cccc(CN)c3F)c2o1` [Compound 416d, 2-(2-((7-(3-(aminomethyl)-2-fluorophenyl)-2-(methoxymethyl)benzofuran-5-yl)methoxy)-4-cyanophenyl)acetic acid], the 50% inhibitory concentration (IC50) is below 1000 nM.

For the compound `COCc1cc2cc(COc3cc(NC(C)=O)ccc3CC(=O)O)cc(-c3cccc(CN)c3)c2o1` [Compound 417e, 2-(4-acetamido-2-((7-(3-(aminomethyl)phenyl)-2-(methoxymethyl)benzofuran-5-yl)methoxy)phenyl)acetic acid], the concentration for half-maximal inhibition (IC50) is below 1000 nM. Next, `NCc1cccc(-c2cc(NC(=O)N3CCC[C@H]3C(=O)NCc3cccc(Cl)c3F)cc3ccoc23)c1` [Compound 418c, (S)—N1-(7-(3-(aminomethyl)phenyl)benzofuran-5-yl)-N2-(3-chloro-2-fluorobenzyl)pyrrolidine-1,2-dicarboxamide]: below 1000 nM; `Cc1cc2cc(COc3cc(C#N)ccc3CC(=O)O)cc(-c3cccc(CN)c3)c2o1` [Compound 419c, 2-(2-((7-(3-(aminomethyl)phenyl)-2-methylbenzofuran-5-yl)methoxy)-4-cyanophenyl)acetic acid]: below 1000 nM.

Consider `Cc1ccc(CC(=O)O)c(OCc2cc(-c3cccc(CN)c3)c3oc(CO)cc3c2)c1` [Compound 420e, 2-(2-((7-(3-(aminomethyl)phenyl)-2-(hydroxymethyl)benzofuran-5-yl)methoxy)-4-methylphenyl)acetic acid], for which the IC50 was below 1000 nM. Then `CC(=O)Nc1ccc(CC(=O)O)c(OCc2cc(-c3cccc(CN)c3)c3oc(CO)cc3c2)c1` [Compound 421e, 2-(4-acetamido-2-((7-(3-(aminomethyl)phenyl)-2-(hydroxymethyl)benzofuran-5-yl)methoxy)phenyl)acetic acid], with below 1000 nM. Then `N#Cc1ccc(CC(=O)O)c(OCc2cc(-c3cccc(CN)c3)c3oc(CO)cc3c2)c1` [Compound 422e, 2-(2-((7-(3-(aminomethyl)phenyl)-2-(hydroxymethyl)benzofuran-5-yl)methoxy)-4-cyanophenyl)acetic acid], with below 1000 nM; and `Cc1ccc(CC(=O)O)c(OCc2cc(-c3cccc(CN)c3)c3oc(C)cc3c2)c1` [Compound 423c, 2-(2-((7-(3-(aminomethyl)phenyl)-2-methylbenzofuran-5-yl)methoxy)-4-methylphenyl)acetic acid], with below 1000 nM. Turning to `NCc1cccc(-c2cc(COc3cc(C(N)=O)ccc3CC(=O)O)cc3cc(CO)oc23)c1` [Compound 424d, 2-(2-((7-(3-(aminomethyl)phenyl)-2-(hydroxymethyl)benzofuran-5-yl)methoxy)-4-carbamoylphenyl)acetic acid], the IC50 is below 1000 nM. In the case of `Cc1oc2c(-c3cccc(CN)c3)cc(COc3ccccc3CC(=O)O)cc2c1Br` [Compound 425f, 2-(2-((7-(3-(aminomethyl)phenyl)-3-bromo-2-methylbenzofuran-5-yl)methoxy)phenyl)acetic acid], the IC50 is below 1000 nM. Then `CC(=O)Nc1ccc(CC(=O)O)c(OCc2cc(-c3cccc(CN)c3)c3oc(C)cc3c2)c1` [Compound 426c, 2-(4-acetamido-2-((7-(3-(aminomethyl)phenyl)-2-methylbenzofuran-5-yl)methoxy)phenyl)acetic acid], with below 1000 nM; and `Cc1cc(CC(=O)O)c(OCc2cc(-c3cccc(CN)c3F)c3occc3c2)cc1C` [Compound 427b, 2-(2-((7-(3-(aminomethyl)-2-fluorophenyl)benzofuran-5-yl)methoxy)-4,5-dimethylphenyl)acetic acid], with below 1000 nM; and `Cc1cc(CC(=O)O)c(OCc2cc(-c3ccnc(CN)c3)c3occc3c2)cc1C` [Compound 428c, 2-(2-((7-(2-(aminomethyl)pyridin-4-yl)benzofuran-5-yl)methoxy)-4,5-dimethylphenyl)acetic acid], with below 1000 nM. With `Cc1cc2cc(COc3cc(C(N)=O)ccc3CC(=O)O)cc(-c3cccc(CN)c3)c2o1` [Compound 429c, 2-(2-((7-(3-(aminomethyl)phenyl)-2-methylbenzofuran-5-yl)methoxy)-4-carbamoylphenyl)acetic acid], the IC50 is below 1000 nM. With `Cc1cc(CC(=O)O)c(OCc2cc(-c3ccnc(CN)c3F)c3occc3c2)cc1C` [Compound 430c, 2-(2-((7-(2-(aminomethyl)-3-fluoropyridin-4-yl)benzofuran-5-yl)methoxy)-4,5-dimethylphenyl)acetic acid], the IC50 is below 1000 nM.

Regarding `NCc1nccc(-c2cc(COc3ccccc3CC(=O)O)cc3ccsc23)c1F` [Compound 431c, 2-(2-((7-(2-(aminomethyl)-3-fluoropyridin-4-yl)benzo[b]thiophen-5-yl)methoxy)phenyl)acetic acid], the concentration for half-maximal inhibition (IC50) was below 1000 nM.

Consider `CC(=O)Nc1ccc(CC(=O)O)c(OCc2cc(-c3cccc(CN)c3F)c3occc3c2)c1` [Compound 432c, 2-(4-acetamido-2-((7-(3-(aminomethyl)-2-fluorophenyl)benzofuran-5-yl)methoxy)phenyl)acetic acid], for which the IC50 is below 1000 nM.

In the case of `N#Cc1ccc(CC(=O)O)c(OCc2cc(-c3ccnc(CN)c3)c3occc3c2)c1` [Compound 433c, 2-(2-((7-(2-(aminomethyl)pyridin-4-yl)benzofuran-5-yl)methoxy)-4-cyanophenyl)acetic acid], the half-maximal inhibitory concentration (IC50) is below 1000 nM. On to `N#Cc1ccc(CC(=O)O)c(OCc2cc(-c3ccnc(CN)c3F)c3occc3c2)c1` [Compound 435b, 2-(2-((7-(2-(aminomethyl)-3-fluoropyridin-4-yl)benzofuran-5-yl)methoxy)-4-cyanophenyl)acetic acid], for which the IC50 is below 1000 nM. For `CC(=O)Nc1ccc(CC(=O)O)c(OCc2cc(-c3ccnc(CN)c3)c3occc3c2)c1` [Compound 437c, 2-(4-acetamido-2-((7-(2-(aminomethyl)pyridin-4-yl)benzofuran-5-yl)methoxy)phenyl)acetic acid], the IC50 was below 1000 nM. On to `CC(=O)Nc1ccc(CC(=O)O)c(OCc2cc(-c3ccnc(CN)c3F)c3occc3c2)c1` [Compound 438c, 2-(4-acetamido-2-((7-(2-(aminomethyl)-3-fluoropyridin-4-yl)benzofuran-5-yl)methoxy)phenyl)acetic acid], for which the IC50 is below 1000 nM. `COCc1cc2cc(COc3cc(C(N)=O)ccc3CC(=O)O)cc(-c3cccc(CN)c3F)c2o1` [Compound 439c, 2-(2-((7-(3-(aminomethyl)-2-fluorophenyl)-2-(methoxymethyl)benzofuran-5-yl)methoxy)-4-carbamoylphenyl)acetic acid]: the 50% inhibitory concentration (IC50) was below 1000 nM. Then `COCc1cc2cc(COc3cc(CN)ccc3CC(=O)O)cc(-c3cccc(CN)c3F)c2o1` [Compound 440c, 2-(4-(aminomethyl)-2-((7-(3-(aminomethyl)-2-fluorophenyl)-2-(methoxymethyl)benzofuran-5-yl)methoxy)phenyl)acetic acid], with below 1000 nM; and `COCc1cc2cc(COc3cc(NC(C)=O)ccc3CC(=O)O)cc(-c3cccc(CN)c3F)c2o1` [Compound 441c, 2-(4-acetamido-2-((7-(3-(aminomethyl)-2-fluorophenyl)-2-(methoxymethyl)benzofuran-5-yl)methoxy)phenyl)acetic acid], with below 1000 nM; and `Cc1ccc(CC(=O)O)c(OCc2cc(-c3cccc(CN)c3)c3sccc3c2)c1` [Compound 443i, 2-(2-((7-(3-(aminomethyl)phenyl)benzo[b]thiophen-5-yl)methoxy)-4-methylphenyl)acetic acid], with below 1000 nM.

(Values after patent US11370774B2, “Substituted benzofuran, benzopyrrole, benzothiophene, and structurally related complement inhibitors” (BioCryst Pharmaceuticals, Inc., priority 2018, dated 2022).)
